{"source": "PubChem BioAssay AID2060898", "about": "(Molecular Pharmacology Branch, DTP, NCI, 2025);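 note: spheroids exposed to agents for seven days before viability readout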;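 for viability, T/C: 100% = DMSO vehicle control viability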", "tested_on": "616215-338-R-J1-PDC complex spheroid viability", "assay": "Anticancer human tumor 616215-338-R-J1-PDC patient-derived colon adenocarcinoma cell line growth inhibition [RAS]", "details": "for IC50: curve of first compound; for viability, T/C: stronger effect = lower value", "summary_of_the_method": "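Multi-cell-type spheroids: tumor cells plus HUVEC endothelial cells and mesenchymal stem cells. RAS-pathway inhibitors were combined with targeted agents, each dosed in half-log steps down from clinical Cmax, or from 10 microM when Cmax was unknown.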", "key": {"[1]": {"details": "second compound 0.000949 µM, first compound 0.0316 µM"}, "[2]": {"details": "second compound 0.000949 µM, first compound 0.1 µM"}, "[3]": {"details": "second compound 0.000949 µM, first compound 0.316 µM"}, "[4]": {"details": "second compound 0.000949 µM, first compound 1 µM"}, "[5]": {"details": "second compound 0.000949 µM, first compound 3.16 µM"}, "[6]": {"details": "second compound 0.000949 µM, first compound 10 µM"}, "[7]": {"details": "second compound 0.003 µM, first compound 0.0316 µM"}, "[8]": {"details": "second compound 0.003 µM, first compound 0.1 µM"}, "[9]": {"details": "second compound 0.003 µM, first compound 0.316 µM"}, "[10]": {"details": "second compound 0.003 µM, first compound 1 µM"}, "[11]": {"details": "second compound 0.003 µM, first compound 3.16 µM"}, "[12]": {"details": "second compound 0.003 µM, first compound 10 µM"}, "[13]": {"details": "second compound 0.00949 µM, first compound 0.0316 µM"}, "[14]": {"details": "second compound 0.00949 µM, first compound 0.1 µM"}, "[15]": {"details": "second compound 0.00949 µM, first compound 0.316 µM"}, "[16]": {"details": "second compound 0.00949 µM, first compound 1 µM"}, "[17]": {"details": "second compound 0.00949 µM, first compound 3.16 µM"}, "[18]": {"details": "second compound 0.00949 µM, first compound 10 µM"}, "[19]": {"details": "second compound 0.03 µM, first compound 0.0316 µM"}, "[20]": {"details": "second compound 0.03 µM, first compound 0.1 µM"}, "[21]": {"details": "second compound 0.03 µM, first compound 0.316 µM"}, "[22]": {"details": "second compound 0.03 µM, first compound 1 µM"}, "[23]": {"details": "second compound 0.03 µM, first compound 3.16 µM"}, "[24]": {"details": "second compound 0.03 µM, first compound 10 µM"}, "[25]": {"details": "second compound 0.0949 µM, first compound 0.0316 µM"}, "[26]": {"details": "second compound 0.0949 µM, first compound 0.1 µM"}, "[27]": {"details": "second compound 0.0949 µM, first compound 0.316 µM"}, "[28]": {"details": "second compound 0.0949 µM, first compound 1 µM"}, "[29]": {"details": "second compound 0.0949 µM, first compound 3.16 µM"}, "[30]": {"details": "second compound 0.0949 µM, first compound 10 µM"}, "[31]": {"details": "second compound 0.3 µM, first compound 0.0316 µM"}, "[32]": {"details": "second compound 0.3 µM, first compound 0.1 µM"}, "[33]": {"details": "second compound 0.3 µM, first compound 0.316 µM"}, "[34]": {"details": "second compound 0.3 µM, first compound 1 µM"}, "[35]": {"details": "second compound 0.3 µM, first compound 3.16 µM"}, "[36]": {"details": "second compound 0.3 µM, first compound 10 µM"}}, "data": [{"smiles": "CC1(O)CCCC1n1c(=O)c(C(F)F)cc2cnc(NC3CCN(S(C)(=O)=O)CC3)nc21", "note": "(centres undefined) + CCn1c(-c2cccnc2C(C)OC)c2c3cc(ccc31)N1CCOC(CC(NC(=O)C(C(C)C)N(C)C(=O)C3(F)CCN(C(=O)C#CC(C)(C)N(C)C)CC3)C(=O)N3CCCC(N3)C(=O)OCC(C)(C)C2)C1", "values": [{"measurement": "IC50", "setting": "second compound 0.000949 µM", "value": 1.18, "unit": "µM"}, {"measurement": "IC50", "setting": "second compound 0.003 µM", "value": 1.29, "unit": "µM"}, {"measurement": "IC50", "setting": "second compound 0.00949 µM", "value": 1.34, "unit": "µM"}, {"measurement": "IC50", "setting": "second compound 0.03 µM", "value": 1.16, "unit": "µM"}, {"measurement": "IC50", "setting": "second compound 0.0949 µM", "value": 1.18, "unit": "µM"}, {"measurement": "IC50", "setting": "second compound 0.3 µM", "value": 0.83, "unit": "µM"}, {"measurement": "viability, T/C", "setting": "[1]", "value": 112, "unit": "%"}, {"measurement": "viability, T/C", "setting": "[2]", "value": 105, "unit": "%"}, {"measurement": "viability, T/C", "setting": "[3]", "value": 57.5, "unit": "%"}, {"measurement": "viability, T/C", "setting": "[4]", "value": 53.3, "unit": "%"}, {"measurement": "viability, T/C", "setting": "[5]", "value": 48.3, "unit": "%"}, {"measurement": "viability, T/C", "setting": "[6]", "value": 3.43, "unit": "%"}, {"measurement": "viability, T/C", "setting": "[7]", "value": 114, "unit": "%"}, {"measurement": "viability, T/C", "setting": "[8]", "value": 109, "unit": "%"}, {"measurement": "viability, T/C", "setting": "[9]", "value": 58.3, "unit": "%"}, {"measurement": "viability, T/C", "setting": "[10]", "value": 56.5, "unit": "%"}, {"measurement": "viability, T/C", "setting": "[11]", "value": 49.9, "unit": "%"}, {"measurement": "viability, T/C", "setting": "[12]", "value": 3.17, "unit": "%"}, {"measurement": "viability, T/C", "setting": "[13]", "value": 109, "unit": "%"}, {"measurement": "viability, T/C", "setting": "[14]", "value": 112, "unit": "%"}, {"measurement": "viability, T/C", "setting": "[15]", "value": 61.9, "unit": "%"}, {"measurement": "viability, T/C", "setting": "[16]", "value": 55.3, "unit": "%"}, {"measurement": "viability, T/C", "setting": "[17]", "value": 50.3, "unit": "%"}, {"measurement": "viability, T/C", "setting": "[18]", "value": 3.71, "unit": "%"}, {"measurement": "viability, T/C", "setting": "[19]", "value": 118, "unit": "%"}, {"measurement": "viability, T/C", "setting": "[20]", "value": 112, "unit": "%"}, {"measurement": "viability, T/C", "setting": "[21]", "value": 55.1, "unit": "%"}, {"measurement": "viability, T/C", "setting": "[22]", "value": 50, "unit": "%"}, {"measurement": "viability, T/C", "setting": "[23]", "value": 46, "unit": "%"}, {"measurement": "viability, T/C", "setting": "[24]", "value": 4.07, "unit": "%"}, {"measurement": "viability, T/C", "setting": "[25]", "value": 108, "unit": "%"}, {"measurement": "viability, T/C", "setting": "[26]", "value": 102, "unit": "%"}, {"measurement": "viability, T/C", "setting": "[27]", "value": 60.8, "unit": "%"}, {"measurement": "viability, T/C", "setting": "[28]", "value": 51, "unit": "%"}, {"measurement": "viability, T/C", "setting": "[29]", "value": 49.8, "unit": "%"}, {"measurement": "viability, T/C", "setting": "[30]", "value": 4.02, "unit": "%"}, {"measurement": "viability, T/C", "setting": "[31]", "value": 95.5, "unit": "%"}, {"measurement": "viability, T/C", "setting": "[32]", "value": 74.3, "unit": "%"}, {"measurement": "viability, T/C", "setting": "[33]", "value": 44.1, "unit": "%"}, {"measurement": "viability, T/C", "setting": "[34]", "value": 52.6, "unit": "%"}, {"measurement": "viability, T/C", "setting": "[35]", "value": 52.4, "unit": "%"}, {"measurement": "viability, T/C", "setting": "[36]", "value": 3.81, "unit": "%"}]}, {"smiles": "CCC(CC)c1cc(NC2CCC(N)C2)n2nccc2n1", "note": "(centres undefined) + CCn1c(-c2cccnc2C(C)OC)c2c3cc(ccc31)N1CCOC(CC(NC(=O)C(C(C)C)N(C)C(=O)C3(F)CCN(C(=O)C#CC(C)(C)N(C)C)CC3)C(=O)N3CCCC(N3)C(=O)OCC(C)(C)C2)C1", "values": [{"measurement": "IC50", "setting": "second compound 0.000949 µM", "value": 1.82, "unit": "µM"}, {"measurement": "IC50", "setting": "second compound 0.003 µM", "value": 1.76, "unit": "µM"}, {"measurement": "IC50", "setting": "second compound 0.00949 µM", "value": 1.77, "unit": "µM"}, {"measurement": "IC50", "setting": "second compound 0.03 µM", "value": 1.77, "unit": "µM"}, {"measurement": "IC50", "setting": "second compound 0.0949 µM", "value": 1.81, "unit": "µM"}, {"measurement": "IC50", "setting": "second compound 0.3 µM", "value": 1.57, "unit": "µM"}, {"measurement": "viability, T/C", "setting": "[1]", "value": 107, "unit": "%"}, {"measurement": "viability, T/C", "setting": "[2]", "value": 89.4, "unit": "%"}, {"measurement": "viability, T/C", "setting": "[3]", "value": 109, "unit": "%"}, {"measurement": "viability, T/C", "setting": "[4]", "value": 107, "unit": "%"}, {"measurement": "viability, T/C", "setting": "[5]", "value": 0.55, "unit": "%"}, {"measurement": "viability, T/C", "setting": "[6]", "value": 0.29, "unit": "%"}, {"measurement": "viability, T/C", "setting": "[7]", "value": 101, "unit": "%"}, {"measurement": "viability, T/C", "setting": "[8]", "value": 94.6, "unit": "%"}, {"measurement": "viability, T/C", "setting": "[9]", "value": 89.1, "unit": "%"}, {"measurement": "viability, T/C", "setting": "[10]", "value": 106, "unit": "%"}, {"measurement": "viability, T/C", "setting": "[11]", "value": 0.5, "unit": "%"}, {"measurement": "viability, T/C", "setting": "[12]", "value": 0.26, "unit": "%"}, {"measurement": "viability, T/C", "setting": "[13]", "value": 92.2, "unit": "%"}, {"measurement": "viability, T/C", "setting": "[14]", "value": 92.8, "unit": "%"}, {"measurement": "viability, T/C", "setting": "[15]", "value": 101, "unit": "%"}, {"measurement": "viability, T/C", "setting": "[16]", "value": 111, "unit": "%"}, {"measurement": "viability, T/C", "setting": "[17]", "value": 0.46, "unit": "%"}, {"measurement": "viability, T/C", "setting": "[18]", "value": 0.26, "unit": "%"}, {"measurement": "viability, T/C", "setting": "[19]", "value": 101, "unit": "%"}, {"measurement": "viability, T/C", "setting": "[20]", "value": 93.3, "unit": "%"}, {"measurement": "viability, T/C", "setting": "[21]", "value": 91.2, "unit": "%"}, {"measurement": "viability, T/C", "setting": "[22]", "value": 109, "unit": "%"}, {"measurement": "viability, T/C", "setting": "[23]", "value": 0.45, "unit": "%"}, {"measurement": "viability, T/C", "setting": "[24]", "value": 0.22, "unit": "%"}, {"measurement": "viability, T/C", "setting": "[25]", "value": 103, "unit": "%"}, {"measurement": "viability, T/C", "setting": "[26]", "value": 110, "unit": "%"}, {"measurement": "viability, T/C", "setting": "[27]", "value": 106, "unit": "%"}, {"measurement": "viability, T/C", "setting": "[28]", "value": 102, "unit": "%"}, {"measurement": "viability, T/C", "setting": "[29]", "value": 0.44, "unit": "%"}, {"measurement": "viability, T/C", "setting": "[30]", "value": 0.27, "unit": "%"}, {"measurement": "viability, T/C", "setting": "[31]", "value": 114, "unit": "%"}, {"measurement": "viability, T/C", "setting": "[32]", "value": 112, "unit": "%"}, {"measurement": "viability, T/C", "setting": "[33]", "value": 116, "unit": "%"}, {"measurement": "viability, T/C", "setting": "[34]", "value": 82.1, "unit": "%"}, {"measurement": "viability, T/C", "setting": "[35]", "value": 0.46, "unit": "%"}, {"measurement": "viability, T/C", "setting": "[36]", "value": 0.29, "unit": "%"}]}]}
